According to US11077087B2, “Compositions comprising dihydroquercetin for use in methods for treating herpes” (BIONOOX SUISSE SA, priority 2015, dated 2021):

What was measured:
Assay type in all cases: cell-based
human mast cells = assay: Mast cell degranulation (IgE/anti-IgE), beta-hexosaminidase release
Text: Pure populations of human mast cells (HMC) are obtained by long-term culture of human normal hematopoietic progenitors (CD34^+ cells) in the continuous presence of Stem Cell Factor (SCF). Sources of these CD34^+ cells are mainly bone marrow, cord blood or peripheral blood. Usually, mononuclear cells from bone marrow and cord blood contain 0.5-1% of CD34^+ cells, whereas peripheral blood contains less than 0.1% of CD34^+ cells. Hematopoietic progenitor cells can be rapidly and efficiently enriched to a purity of about 85-98% using positive selection of magnetically labeled CD34^+ cells. Hematopoietic progenitor cells are then magnetically labeled using MACS CD34 MicroBeads. The magnetically labeled cells are enriched on positive selection columns in the magnetic field. Mononuclear cells from peripheral blood (PBMC), cord blood, or bone marrow may otherwise be obtained by density gradient centrifugation over Ficoll Paque®. Fractionation methods for producing mast cells are described in the art (see for instance Arock et al., 2008, Methods in Molecular biology 415: 241-254). Mast cell degranulation was induced by sequential treatment of mast cell by IgE, then by anti-IgE antibodies. Degranulation was subsequently measured by evaluating the release of beta-hexosaminidase, 1 h after IgE stimulation (see FIG. 4).

NIH-3T3 fibroblasts = assay: NIH-3T3 fibroblast proliferation, MTT assay; settings: increasing DHQ concentrations
Method: The NIH 3T3 cell line was purchased from the ATCC (CRL1658). Cell lines are grown in Dulbecco's Modified Eagles' Medium (DMEM) supplemented with 10% heat inactivated newborn calf serum, 100 UI/mL penicillin and 100 μg/mL streptomycin (all from Gibco BRL) at 37° C. in a humidified 5% CO2 atmosphere. DHQ is dissolved in DMSO. Cells are cultured during 48 hours in the absence or in the presence of various DHQ concentrations. NIH-3T3 fibroblasts are immortalized cells which mimic the inflammatory phenotype assessed by the abundance of actin stress fibers and high contractility.
The effects of DHQ on the growth of NIH-3T3 cells are determined using the 3-(4,5-dimetthylthiazol-2-yl)-2,5-diphenyltetrazolium bromide (MTT) assay. Briefly, cells are plated on 96 well plates at 4,000 cells per well with increasing DHQ concentrations. After 72 hours of incubation with the drug, medium is removed and replaced by complete medium+MTT (10% v/v). After 3 hours of incubation, formazan crystals are dissolved in buffer containing 10% SDS (w/v, Bio-Rad), 50% Dimethyl formamide (Sigma), pH 4.7. Absorbance of reduced formazan is measured at 580 nm. Results are presented in FIG. 5: 100% of MTT reduced is attributed to the measure performed in absence of DHQ.

[1] = system: polymorphonuclear neutrophils; assay: Superoxide production by neutrophils, SOD-inhibitable ferricytochrome c reduction assay
Method: (§1) PMA (12-O-tetradecanoyl-phorbol-13-acetate, Consolidated Midland Corp., Brewster, N.Y.) is dissolved at 1 mg/ml in dimethyl sulfoxide. This stock solution maintains full biological activity for several months when stored at […] in the dark. Unless otherwise specified, polymorphonuclear neutrophils (PMN), 10^6/ml in BS-H, are put into plastic centrifuge tubes (Falcon No. 2070, Falcon Labware, Div. of Becton, Dickinson & Co., Oxnard, Calif.) and brought to 37° C. PMA stock solution is added to provide a final concentration of 100 ng/ml of PMA. “Resting” (control) cells are exposed to […] dimethyl sulfoxide. A chemiluminescence (using luminol) method is used to measure Reactive Oxygen species (ROS) production (Dang et al, J Clin Invest. 2006, 116(7):2033-43; Boussetta et al, Blood. 2010, 116(26):5795-802). Superoxide production is measured by the superoxide dismutase (SOD)-inhibitable ferricytochrome c reduction assay.
When activated by opsonized bacteria, zymozan, fMLP (Formyl-Methionyl-Leucyl-Phenylalanine) or PMA (phorbol myristate acetate), neutrophils undergo an oxidative burst resulting in the production of superoxide anion and subsequent hydrogen peroxide. The oxidative burst is mainly mediated by the NADPH oxidase activation, enzyme responsible of the superoxide anion production. […] This effect results either from the direct anion superoxide scavenging or from the inhibition of NADPH oxidase activation.

neutrophils [2] = assay: ROS production by neutrophils triggered by fMLP, luminol chemiluminescence; settings: for Integral (total chemiluminescence counts, total ROS production): 22.21 min
Method: Neutrophils (5×10^5) are suspended in 0.5 mL of Hanks balanced salt solution containing 10 μM luminol at 37° C. The cells are then stimulated with 10^−6M fMLP (N-formylmethionyl-leucyl-phenylalanine). Chemiluminescence is recorded with a luminometer (Berthold-Biolumat LB937). Similarly, neutrophils were triggered by fMLP (10^−6 M) in the presence of different concentrations of DHQ (0, 1, 10 and 100 μM) at 37° C. in Hanks buffer containing 10 μM luminol and chemiluminescence was measured by a chemiluminometer. Total chemiluminescence counts during 22.21 min. (integrals) corresponding to total ROS production were determined.

[3] = system: polymorphonuclear neutrophils; assay: Oxygen consumption of polymorphonuclear neutrophils triggered by PMA and fMLP; settings: data not shown
neutrophils [4] = assay: ROS production by neutrophils triggered by PMA, luminol chemiluminescence; settings: for Integral (total chemiluminescence counts, total ROS production) / Peak max / Slope max / T. Slope max / T. half (rise) / T. max (peak): PMA 100 ng/mL; for Integral (total chemiluminescence counts, total ROS production): 22.21 min
Method: as §1
Neutrophils are triggered by PMA (100 ng/mL) in the presence of different concentrations of DHQ (0, 1, 10 and 100 μM) at 37° C. in Hanks buffer containing 10 μM luminol and chemiluminescence is measured by a chemiluminometer. Total chemiluminescence counts during 22.21 min. (integrals) corresponding to total ROS production are determined.

[5] = fMLP 10^−6 M, DHQ 1 μM (inferred)
[6] = fMLP 10^−6 M, DHQ 10 μM (inferred)
[7] = fMLP 10^−6 M, DHQ 100 μM (inferred)

## O=C1c2c(O)cc(O)cc2OC(c2ccc(O)c(O)c2)C1O (stereo not shown) [DHQ]
Human mast cells; Homo sapiens, Mast cell, DHQ 10 μM, beta-hexosaminidase release 1 h after IgE stimulation
  inhibition at 10 µM: ≤ 50%
Human mast cells; Homo sapiens, Mast cell, DHQ 100 μM, beta-hexosaminidase release 1 h after IgE stimulation
  inhibition at 100 µM: 80%
Human mast cells; versus kinase inhibitors and chromoglycate
  inhibitory activity on degranulation compared with reference molecules: superior to kinase inhibitors and chromoglycate
NIH-3T3 fibroblasts
  cell viability of NIH-3T3 cells (extent of MTT reduced): reduced
[1]; +PMA, DHQ 1 μM
  cytochrome c reduction (anion superoxide production): 0.110 dDO/min
[1]; +PMA, DHQ 10 μM
  cytochrome c reduction (anion superoxide production): 0.070 dDO/min
[1]; +PMA, DHQ 100 μM
  cytochrome c reduction (anion superoxide production): 0.021 dDO/min
[1]; +fMLP, DHQ 1 μM
  cytochrome c reduction (anion superoxide production): 0.144 dDO/min
[1]; +fMLP, DHQ 10 μM
  cytochrome c reduction (anion superoxide production): 0.105 dDO/min
[1]; +fMLP, DHQ 100 μM
  cytochrome c reduction (anion superoxide production): 0.040 dDO/min
[1]; resting neutrophils, DHQ 1 μM
  cytochrome c reduction (anion superoxide production): 0.000 dDO/min
[1]; resting neutrophils, DHQ 10 μM
  cytochrome c reduction (anion superoxide production): 0.036 dDO/min
[1]; resting neutrophils, DHQ 100 μM
  cytochrome c reduction (anion superoxide production): 0.086 dDO/min
Neutrophils [2]; Neutrophil, neutrophils activated by fMLP, DHQ 1 μM
  inhibition at 1 µM: ~80%
Neutrophils [2]; fMLP 10^−6 M, DHQ 1 μM (line not labelled, concentration inferred)
  Integral (total chemiluminescence counts, total ROS production): 3.838E+08
Neutrophils [2]; fMLP 10^−6 M, DHQ 10 μM (line not labelled, concentration inferred)
  Integral (total chemiluminescence counts, total ROS production): 1.867E+08
Neutrophils [2]; fMLP 10^−6 M, DHQ 100 μM (line not labelled, concentration inferred)
  Integral (total chemiluminescence counts, total ROS production): 4.329E+07
Neutrophils [2]; [5]
  Peak max: 3.731E+07 cpm
  Slope max: 2.492E+07 cpm
  T. Slope max: 0.22
  T. half (fall): 3.78
  T. max (peak): 1.33
Neutrophils [2]; [6]
  Peak max: 1.770E+07 cpm
  Slope max: 1.206E+07 cpm
  T. Slope max: 0.22
  T. half (fall): 3.55
  T. max (peak): 1.33
Neutrophils [2]; [7]
  Peak max: 2.533E+06 cpm
  Slope max: 1.464E+06 cpm
  T. Slope max: 2.00
  T. half (rise): 1.55
  T. max (peak): 6.00
[3]
  oxygen consumption of polymorphonuclear neutrophils: strongly inhibits
Neutrophils [4]; Neutrophil, neutrophils activated by PMA, DHQ 1 μM
  inhibition at 1 µM: ~80%
Neutrophils [4]; DHQ 1 μM (line not labelled, concentration inferred)
  Integral (total chemiluminescence counts, total ROS production): 4.509E+08
Neutrophils [4]; DHQ 10 μM (line not labelled, concentration inferred)
  Integral (total chemiluminescence counts, total ROS production): 2.0172E+08
Neutrophils [4]; DHQ 100 μM (line not labelled, concentration inferred)
  Integral (total chemiluminescence counts, total ROS production): 3.576E+07
Neutrophils [4]; DHQ 1 μM (inferred)
  Peak max: 2.430E+07 cpm
  Slope max: 9.790E+06 cpm
  T. Slope max: 1.78
  T. half (rise): 2.44
  T. max (peak): 11.77
Neutrophils [4]; DHQ 10 μM (inferred)
  Peak max: 1.134E+07 cpm
  Slope max: 4.380E+06 cpm
  T. Slope max: 1.55
  T. half (rise): 2.22
  T. max (peak): 9.55
Neutrophils [4]; DHQ 100 μM (inferred)
  Peak max: 2.260E+06 cpm
  Slope max: 1.033E+06 cpm
  T. Slope max: 4.66
  T. half (rise): 4.89
  T. max (peak): 11.55
